Publication PMC4393326, “The natural product brartemicin is a high affinity ligand for the carbohydrate-recognition domain of the macrophage receptor mincle” (Medchemcomm, 2015)

Tests used:
CRD from bovine mincle = target: T1, CRD from bovine mincle (Bos taurus, UniProt E1BHM0); assay: Competition binding assay: inhibition of radioiodinated Man31-bovine serum albumin binding to immobilized biotin-tagged CRD; conditions: for Ki: inhibition of mannose-conjugated serum albumin binding to bovine mincle CRD, average ± s.d. for three independent experiments; for Reduction in binding affinity compared to brartemicin / Rel. affinity (affinity relative to α,α-trehalose): bovine mincle CRD; for Rel. affinity (affinity relative to α,α-trehalose): α,α-trehalose = 1
T1 construct: A biotin-tagged version of the CRD from bovine mincle was prepared in a bacterial expression system; made in house; host or cells: bacterial expression system
T1 sequence (E1BHM0 78-211 limits assumed): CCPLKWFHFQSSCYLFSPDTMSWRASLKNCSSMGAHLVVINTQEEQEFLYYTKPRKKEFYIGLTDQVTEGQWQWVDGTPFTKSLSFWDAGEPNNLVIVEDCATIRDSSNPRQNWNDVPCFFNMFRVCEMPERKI
Experimental: The collection of compounds was tested in competition binding experiments with immobilized bovine mincle CRD[8] (Fig. 3a).
Fig. 3 a) Data for inhibition of mannose-conjugated serum albumin binding to the CRD from bovine mincle by brartemicin and analogs. K I-values (average ± s.d. for three independent experiments) and affinities relative to α,α-trehalose. b) Top view and c) side view of highest scoring docking pose of brartemicin with bovine mincle. The Ca^2+ is coloured magenta. TEXT PRINTED IN THE PICTURE: (a) brartemicin: Ki (μM): 5.5 ± 0.9; Rel. affinity: 290 | (a) 2: Ki (μM): 5.4 ± 0.3; Rel. affinity: 300 | (a) 3: Ki (μM): 11.3 ± 0.9; Rel. affinity: 140 | (a) 4: Ki (μM): 164 ± 13; Rel. affinity: 9.8 | (a) epi-brartemicin: Ki (μM): 440 ± 70; Rel. affinity: 3.6 | (a) α,α-trehalose: Ki (μM): 1620 ± 70; Rel. affinity: 1
(§1) A biotin-tagged version of the CRD from bovine mincle was prepared in a bacterial expression system as previously described.[8] An equivalent fragment of human mincle was generated using an analogous system.[9] Binding competition assays, based on inhibition of binding of radioiodinated Man31-bovine serum albumin to the biotin-tagged CRDs immobilized on streptavidin-coated plates, were performed as previously described.[8] Results are reported as average ± standard deviation for at least 3 independent experiments, each performed in duplicate.

CRD of human mincle = target: T2, CRD of human mincle (Homo sapiens, UniProt Q9ULY5); assay: Competition binding assay with immobilized CRD of human mincle; conditions: Fig. S1
T2 construct: made in house; host or cells: bacterial expression system (analogous to the bovine one)
T2 sequence (Q9ULY5 87-206 limits assumed): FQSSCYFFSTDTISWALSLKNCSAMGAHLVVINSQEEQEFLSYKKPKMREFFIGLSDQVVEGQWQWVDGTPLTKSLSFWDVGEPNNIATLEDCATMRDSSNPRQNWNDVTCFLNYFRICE
Experimental: as §1

[1] = Solubility in aqueous media; type: physicochemical
cancer cells = conditions: cited from earlier work

Structure (SMILES) | Ki (CRD from bovine mincle) [µM] | Binding to CRD of human mincle (CRD of human mincle) | Solubility in aqueous media [1] | Block of matrigel-invasion of cancer cells (cancer cells) | Reduction in binding affinity compared to brartemicin (CRD from bovine mincle) | Rel. affinity (affinity relative to α,α-trehalose) (CRD from bovine mincle) [fold] | Anti-invasive activity on cancer cells (cancer cells)
Cc1cc(O)cc(O)c1C(=O)OC[C@H]1O[C@H](O[C@H]2O[C@H](COC(=O)c3c(C)cc(O)cc3O)[C@@H](O)[C@H](O)[C@H]2O)[C@H](O)[C@@H](O)[C@@H]1O [brartemicin, 6,6′-Bis-(2,4-dihydroxy-6-methylbenzoate)-α,α-trehalose] | 5.5 ± 0.9 | binds with high affinity | soluble at millimolar concentrations | block matrigel-invasion of cancer cells |  |  | 
COc1cccc(C(=O)OC[C@H]2O[C@H](O[C@H]3O[C@H](COC(=O)c4cccc(OC)c4OC)[C@@H](O)[C@H](O)[C@H]3O)[C@H](O)[C@@H](O)[C@@H]2O)c1OC [compound 2] | 5.4 ± 0.3 |  |  |  | equipotent | 300 | in the same range as brartemicin
O=C(OC[C@H]1O[C@H](O[C@H]2O[C@H](COC(=O)c3ccccc3)[C@@H](O)[C@H](O)[C@H]2O)[C@H](O)[C@@H](O)[C@@H]1O)c1ccccc1 [compound 3] | 11.3 ± 0.9 |  |  |  | two-fold | 140 | in the same range as brartemicin
Cc1cc(O)cc(O)c1C(=O)OC[C@H]1O[C@H](O[C@H]2O[C@H](CO)[C@@H](O)[C@H](O)[C@H]2O)[C@H](O)[C@@H](O)[C@@H]1O [compound 4] | 164 ± 13 |  |  |  | roughly 30 fold | 9.8 | 
Cc1cc(O)cc(O)c1C(=O)OC[C@H]1O[C@@H](O[C@H]2O[C@H](COC(=O)c3c(C)cc(O)cc3O)[C@@H](O)[C@H](O)[C@H]2O)[C@H](O)[C@@H](O)[C@@H]1O [epi-brartemicin, 6,6′-Bis-(2,4-dihydroxy-6-methylbenzoate)-α,β-trehalose] | 440 ± 70 |  |  |  | ~100 fold | 3.6 | 
OC[C@H]1O[C@H](O[C@H]2O[C@H](CO)[C@@H](O)[C@H](O)[C@H]2O)[C@H](O)[C@@H](O)[C@@H]1O [α,α-trehalose, reference compound] | 1620 ± 70 |  |  |  |  | 1 | 
